US20240398814A1, “KRAS INHIBITOR AND HDAC INHIBITOR COMBINATION FOR THE TREATMENT OF CANCER” (Northwestern University, priority 2023, published 2024)

Columns and labels:
human lung cancer cells = experiment: FGFR1 resistance mechanism in human lung cancer cells; format: cell-based; details: 6 days of treatment
KL LJE1 cells [1] = experiment: Western blot and qRT-PCR of FGFR1, NKX2-1 and ERK phosphorylation in drug-treated KL LJE1 cells; format: cell-based, mouse
Method: (§1) All cell lines were incubated at 37° C. and were maintained in an atmosphere containing 5% CO2. Cells were tested for Mycoplasma (Lonza) using manufacturer's conditions and were deemed negative. Cells were grown in Dulbecco's modified Eagles medium (DMEM) plus 10% fetal bovine serum (Gibco) and were continuously maintained under antibiotic selection for stable cell lines. Proliferation assays were performed by plating 2×10^3 cells per well of a 6-well plate, and cells were counted 5 days post-plating. Drug treatments were carried out using the following doses: entinostat 1 uM or 2 uM, RGFP966 10uM, TSA 0.5 uM, BRD3308 5 uM, trametinib 5 nM, 10 nM, and 25 nM, and MRTX1133 10 nM, 25 nM, and 50 nM, as indicated for the indicated treatment lengths. Media was changed and fresh drug added every 2 days.
(§2) mRNA was prepared using the Quick-RNA Miniprep kit (Zymo Research), including DNase treatment. cDNA was synthesized from 2 μg of RNA using SuperScript III (Life Technologies), and qPCR was carried out with diluted cDNA, appropriate primers, and SYBR Green PCR master mix (ThermoFisher Scientific) using a C1000 Thermal Cycler (BioRad). Relative mRNA levels were calculated using the delta Ct method, using Tbp as an internal control.
(§3) Protein lysates in CST buffer (20 mM Tris pH 7.5, 150 mM NaCl, 1% Triton X-100, 50 mM NaF, 1 mM EDTA, 1 mM EGTA, 2.5 mM PyroPhosphate, 2 mM beta-glycerol-phosphate, 1 mM orthovanadate, 0.01 mM Calyculan A) with protease inhibitors were equilibrated for protein levels using a BCA protein assay kit (Pierce), resolved on 8% SDS-PAGE gels, and transferred to membrane. Membranes were blocked in milk, incubated o/n at 4C in diluted primary antibody, washed with TBS-T, incubated 1 hr in secondary antibody diluted in TBS-T plus milk, washed in TBS-T, and developed using SuperSignal ECL. Secondary antibodies: anti-rabbit (Millipore AP132P) and anti-mouse (Millipore AP124P). Nuclear fractions were isolated using a NE-PER nuclear and cytoplasmic extraction kit (Thermofisher) under manufacturers conditions.

KL LJE1 cells [2] = experiment: qRT-PCR of chemokine (HRCG) gene expression in KL LJE1 cells; format: cell-based, mouse
Method: as §1, §2

KL LJE1 cells [3] = experiment: RNA-seq of drug-treated KL LJE1 cells (TIER genes); format: cell-based, mouse; details: adj. p-value<0.05, 10 nM trametinib
Method: All cell lines were incubated at 37° C. and were maintained in an atmosphere containing 5% CO2. Cells were tested for Mycoplasma (Lonza) using manufacturer's conditions and were deemed negative. Cells were grown in Dulbecco's modified Eagles medium (DMEM) plus 10% fetal bovine serum (Gibco) and were continuously maintained under antibiotic selection for stable cell lines. Proliferation assays were performed by plating 2×10^3 cells per well of a 6-well plate, and cells were counted 5 days post-plating. […]
mRNA was collected from cells harvested within 2 passages post-thaw. mRNA was isolated using the Quick-RNA Miniprep kit (Zymo Research), including DNase treatment. RNA integrity (RIN) numbers were determined using the Agilent TapeStation prior to library preparation. mRNA-seq libraries were prepared using the TruSeq RNA library preparation kit (version 2), according to the manufacturer's instructions (Illumina). Libraries were quantified, pooled, and sequenced by single-end 50 base pairs using the Illumina HiSeq 2500 platform at the Salk Next-Generation Sequencing Core. […]
Sequenced reads were quality-tested using the online FASTQC tool (bioinformatics.babraham.ac.uk/projects/fastqc) and aligned to the mouse mm10 genome using the STAR aligner version 2.4.0k (Ref. 81; incorporated by reference in its entirety). […]

NF-kB/p65 protein = experiment: Western blot of p65 nuclear localisation and K310 acetylation in KL LJE1 cells; format: cell-based, mouse; details: for quantity of p65 protein in the nuclear fraction: Western blot, 6 hr, 2 uM entinostat, 10uM RGFP966, 0.5 uM TSA
Method: as §3
p65-expressing DNA constructs RelA-Flag (22) (Addgene 20012) and GFP-RelA (21) (Addgene 23255) were transiently transfected into KL LJE1 cells using Lipofectamine 2000 (Thermo Fisher Scientific) according to the manufacturer's protocol. Cells were treated with drug as indicated 24 hours after transfection.

H460 cells = experiment: qRT-PCR of chemokine gene expression in H460 cells; format: cell-based, human; details: 1 uM entinostat 4 days, 5 uM BRD3308 4 days
Method: as §1, §2

A549 cells = experiment: qRT-PCR of chemokine gene expression in A549 cells; format: cell-based, human; details: 2 uM entinostat 3 days, 5 uM BRD3308 4 days
Method: as §1, §2

[4] = HDAC3 KO cells, 5 days, MRTX1133 10, 25, or 50 nM, trametinib 5, 10, or 25 nM

C#Cc1c(F)ccc2cc(O)cc(-c3ncc4c(N5CC6CCC(C5)N6)nc(OC[C@@]56CCCN5C[C@H](F)C6)nc4c3F)c12 [MRTX1133]
FGFR1 resistance mechanism (human lung cancer cells): induces the FGFR1 resistance mechanism | FGFR1 resistance mechanism (KL LJE1 cells [1]; 1 day of treatment): induces the FGFR1 resistance mechanism in an HDAC3-dependent manner | FGFR1 resistance mechanism (KL LJE1 cells [1]; 5 days of treatment): induces the FGFR1 resistance mechanism in an HDAC3-dependent manner | ERK phosphorylation at Thr202/Tyr204 (KL LJE1 cells [1]; Western blot, 24 hr, 10 nM, 25 nM or 50 nM MRTX1133): on-target Kras inhibition | HRCG expression, drug alone (NT cells) (KL LJE1 cells [2]; 5 days, MRTX1133 10, 25, or 50 nM): did not impact the expression of these genes | HDAC3 KO-dependent induction of immunosuppressive HRCGs (Cxc15, Cxc1, Cxc12, Cxc13) (KL LJE1 cells [2]; [4]): reversed the HDAC3-dependent induction | HDAC3 KO-dependent induction of immunosurveillance-related HRCGs (Cc15, Cxc110) (KL LJE1 cells [2]; [4]): expression was maintained in the presence of MRTX1133

CC(=O)Nc1cccc(-n2c(=O)n(C3CC3)c(=O)c3c(Nc4ccc(I)cc4F)n(C)c(=O)c(C)c32)c1 [trametinib]
genes upregulated upon 13 day trametinib compared to vehicle (KL LJE1 cells [3]): 2,141 genes

Nc1cc(F)ccc1NC(=O)/C=C/c1cnn(C/C=C/c2ccccc2)c1 [RGFP966]
quantity of p65 protein in the nuclear fraction (NF-kB/p65 protein): increased the quantity of p65 protein in the nuclear fraction | chemokine (SASP) gene expression (KL LJE1 cells [2]; 72 hr, 2 uM entinostat or 10uM RGFP966): robust induction of gene expression

CC(=O)Nc1ccc(C(=O)Nc2ccc(F)cc2N)cc1 [BRD3308]
chemokine (SASP) gene expression (H460 cells): induced the expression of these genes | chemokine (SASP) gene expression (A549 cells): induced the expression of these genes | acetylation of wildtype p65 at K310 (versus K310A mutant) (NF-kB/p65 protein; 5 hours, 1 uM entinostat or 5 uM BRD3308): induce acetylation of wildtype p65 at K310 | gene expression induction in NT versus p65 KO cells (KL LJE1 cells [2]; 3 days, 1 uM entinostat or 5 uM BRD3308): p65 facilitates maximal gene expression induction

CC(/C=C/C(=O)NO)=C\[C@@H](C)C(=O)c1ccc(N(C)C)cc1 [TSA, trichostatin a]
quantity of p65 protein in the nuclear fraction (NF-kB/p65 protein): increased the quantity of p65 protein in the nuclear fraction
